Assay results from article PMC9271048, “Probing strigolactone perception mechanisms with rationally designed small-molecule agonists stimulating germination of root parasitic weeds” (Nature Communications, 2022).

test system: PaKAI2s (5 KAI2 protein homologs in P. aegyptiaca); experiment: YLG-based competition assay on KAI2 protein homologs of P. aegyptiaca; format: biochemical, Phelipanche aegyptiaca; conditions: KAI2C; YLG competition; Supplementary Fig. 27; read-out: IC50, replicate 1
Text: In P. aegyptiaca, 5 KAI2s have been proposed as the SL receptors for the regulation of seed germination. […] The high sequence similarity may explain the consistency of these compounds in inducing germination in both S. hermonthica and P. aegyptiaca.
(§1) The excitation and emission wavelengths of YLG are 480 and 520 nm, respectively. We used a fluorescence spectrophotometer (CARY Eclipse) to detect the fluorescence intensity change of YLG during the enzymatic hydrolysis assay process. All the testing compounds and YLG were dissolved in DMSO and prepared as stock solutions just before use. […] The changes of fluorescence at 520 nm of each well were recorded every 1 min for 30 min. Using the reaction mixture without adding enzyme and tested compounds as the background control. After subtracting the background hydrolysis, a linear fluorescence increase in 8 min was used for further inspection. The IC50 values were determined via fitting relative inhibition percentages with the varying concentrations of compounds in Microsoft Excel.
Supplementary Fig. 27. Binding of compounds 4a, (R)- and (S)-4a, and 4g-i to the HTL proteins in S. hermonthica and KAI2 protein homologs in P. aegyptiaca. In the competitive inhibitory activity assay, YLG (3 µM) was used as the fluorogenic substrate. Error bar indicates SD (n = 3 biologically independent experiments).
(1 picture or pasted object on this page, not shown here)

**Q.** With `CC1=C[C@H](OC(=O)N2CCN(C(=O)COc3ccc(Br)cc3C)CC2)OC1=O` [(S)-4a] as the compound, how does the IC50 read?
**A.** 5.99 µM

same assay, conditions: KAI2C; YLG competition; Supplementary Fig. 27; read-out: IC50, replicate 2

**Q.** `CC1=C[C@H](OC(=O)N2CCN(C(=O)COc3ccc(Br)cc3C)CC2)OC1=O` [(S)-4a] was tested. Which IC50 did it give?
**A.** 5.59 µM

same assay, conditions: KAI2C; YLG competition; Supplementary Fig. 27; read-out: IC50, replicate 3

**Q.** `CC1=C[C@H](OC(=O)N2CCN(C(=O)COc3ccc(Br)cc3C)CC2)OC1=O` [(S)-4a] was tested. Which IC50 did it give?
**A.** 5.14 µM

same assay, conditions: KAI2C; average of 3 replicates; Supplementary Fig. 27; read-out: IC50, average

**Q.** How did the IC50 turn out when `CC1=C[C@H](OC(=O)N2CCN(C(=O)COc3ccc(Br)cc3C)CC2)OC1=O` [(S)-4a] was run?
**A.** 5.57 µM

same assay, conditions: KAI2d1; YLG competition; Supplementary Fig. 27; read-out: IC50, replicate 1

**Q.** Which IC50 does the source give for `CC1=C[C@H](OC(=O)N2CCN(C(=O)COc3ccc(Br)cc3C)CC2)OC1=O` [(S)-4a] here?
**A.** 14.8 µM

same assay, conditions: KAI2d1; YLG competition; Supplementary Fig. 27; read-out: IC50, replicate 2

**Q.** How did the IC50 turn out when `CC1=C[C@H](OC(=O)N2CCN(C(=O)COc3ccc(Br)cc3C)CC2)OC1=O` [(S)-4a] was run?
**A.** 11.8 µM

same assay, conditions: KAI2d1; YLG competition; Supplementary Fig. 27; read-out: IC50, replicate 3

**Q.** For `CC1=C[C@H](OC(=O)N2CCN(C(=O)COc3ccc(Br)cc3C)CC2)OC1=O` [(S)-4a], which IC50 is on record?
**A.** 14.3 µM

same assay, conditions: KAI2d1; average of 3 replicates; Supplementary Fig. 27; read-out: IC50, average

**Q.** Which IC50 does the source give for `CC1=C[C@H](OC(=O)N2CCN(C(=O)COc3ccc(Br)cc3C)CC2)OC1=O` [(S)-4a] here?
**A.** 13.6 µM

same assay, conditions: KAI2d2; YLG competition; Supplementary Fig. 27; read-out: IC50, replicate 1

**Q.** How did the IC50 turn out when `CC1=C[C@H](OC(=O)N2CCN(C(=O)COc3ccc(Br)cc3C)CC2)OC1=O` [(S)-4a] was run?
**A.** 41.7 µM

same assay, conditions: KAI2d2; YLG competition; Supplementary Fig. 27; read-out: IC50, replicate 2

**Q.** Which IC50 does the source give for `CC1=C[C@H](OC(=O)N2CCN(C(=O)COc3ccc(Br)cc3C)CC2)OC1=O` [(S)-4a] here?
**A.** 36.2 µM

same assay, conditions: KAI2d2; YLG competition; Supplementary Fig. 27; read-out: IC50, replicate 3

**Q.** For `CC1=C[C@H](OC(=O)N2CCN(C(=O)COc3ccc(Br)cc3C)CC2)OC1=O` [(S)-4a], which IC50 is on record?
**A.** 35.4 µM

same assay, conditions: KAI2d2; average of 3 replicates; Supplementary Fig. 27; read-out: IC50, average

**Q.** With `CC1=C[C@H](OC(=O)N2CCN(C(=O)COc3ccc(Br)cc3C)CC2)OC1=O` [(S)-4a] as the compound, how does the IC50 read?
**A.** 37.8 µM

same assay, conditions: KAI2d3; YLG competition; Supplementary Fig. 27; read-out: IC50, replicate 1

**Q.** `CC1=C[C@H](OC(=O)N2CCN(C(=O)COc3ccc(Br)cc3C)CC2)OC1=O` [(S)-4a] was tested. Which IC50 did it give?
**A.** 11.9 µM

same assay, conditions: KAI2d3; YLG competition; Supplementary Fig. 27; read-out: IC50, replicate 2

**Q.** For `CC1=C[C@H](OC(=O)N2CCN(C(=O)COc3ccc(Br)cc3C)CC2)OC1=O` [(S)-4a], which IC50 is on record?
**A.** 8.47 µM

same assay, conditions: KAI2d3; YLG competition; Supplementary Fig. 27; read-out: IC50, replicate 3

**Q.** `CC1=C[C@H](OC(=O)N2CCN(C(=O)COc3ccc(Br)cc3C)CC2)OC1=O` [(S)-4a] was tested. Which IC50 did it give?
**A.** 7.99 µM

same assay, conditions: KAI2d3; average of 3 replicates; Supplementary Fig. 27; read-out: IC50, average

**Q.** With `CC1=C[C@H](OC(=O)N2CCN(C(=O)COc3ccc(Br)cc3C)CC2)OC1=O` [(S)-4a] as the compound, how does the IC50 read?
**A.** 9.45 µM

same assay, conditions: KAI2d4; YLG competition; Supplementary Fig. 27; read-out: IC50, replicate 1

**Q.** Which IC50 does the source give for `CC1=C[C@H](OC(=O)N2CCN(C(=O)COc3ccc(Br)cc3C)CC2)OC1=O` [(S)-4a] here?
**A.** 6.05 µM

same assay, conditions: KAI2d4; YLG competition; Supplementary Fig. 27; read-out: IC50, replicate 2

**Q.** Which IC50 does the source give for `CC1=C[C@H](OC(=O)N2CCN(C(=O)COc3ccc(Br)cc3C)CC2)OC1=O` [(S)-4a] here?
**A.** 6.25 µM

same assay, conditions: KAI2d4; YLG competition; Supplementary Fig. 27; read-out: IC50, replicate 3

**Q.** For `CC1=C[C@H](OC(=O)N2CCN(C(=O)COc3ccc(Br)cc3C)CC2)OC1=O` [(S)-4a], which IC50 is on record?
**A.** 8.45 µM

same assay, conditions: KAI2d4; average of 3 replicates; Supplementary Fig. 27; read-out: IC50, average

**Q.** With `CC1=C[C@H](OC(=O)N2CCN(C(=O)COc3ccc(Br)cc3C)CC2)OC1=O` [(S)-4a] as the compound, how does the IC50 read?
**A.** 6.92 µM

target: T1, ShHTL7 (Striga hermonthica, UniProt A0A0M3PNA2); experiment: Competitive inhibition of ShHTL7 with Yoshimulactone Green (YLG) as substrate; format: biochemical; conditions: ShHTL7; YLG competition; Supplementary Fig. 27; read-out: IC50, replicate 1
Procedure: Based on the structural feature of the lead compound 2h, we selected three regions to perform further modification (Supplementary Fig. 6), to try to further improve bioactivity. Insertion of a carbonyl group between the bicyclo[2.2.1]hept-5-en-2-yl group and the piperazine ring was detrimental to binding affinity (Supplementary Fig. 6, region A). Removal of an oxygen atom in region B was found unfavorable to binding affinity as well. Therefore, we focused on modifying the benzene ring (region C) for 2h. A series of compounds with different groups at region C was synthesized (Supplementary Scheme 1). […] As SPR just measures the binding ability, another independent assay by using Yoshimulactone Green (YLG) as the fluorescent substrate was performed to determine the half-maximal inhibitory concentration (IC50) of these compounds against ShHTL7[22].
as §1

T1 sequence (A0A0M3PNA2 entry or part of it): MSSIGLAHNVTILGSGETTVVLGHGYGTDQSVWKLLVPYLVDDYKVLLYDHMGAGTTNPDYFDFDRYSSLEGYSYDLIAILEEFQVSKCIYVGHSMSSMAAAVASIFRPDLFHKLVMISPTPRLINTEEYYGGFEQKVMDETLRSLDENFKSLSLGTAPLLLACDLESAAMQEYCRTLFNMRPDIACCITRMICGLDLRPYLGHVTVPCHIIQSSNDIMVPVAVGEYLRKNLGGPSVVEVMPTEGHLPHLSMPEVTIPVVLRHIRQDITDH

**Q.** With `CC1=C[C@H](OC(=O)N2CCN(C(=O)COc3ccc(Br)cc3C)CC2)OC1=O` [(S)-4a] as the compound, how does the IC50 read?
**A.** 1060 nM

same assay, conditions: ShHTL7; YLG competition; Supplementary Fig. 27; read-out: IC50, replicate 2

**Q.** `CC1=C[C@H](OC(=O)N2CCN(C(=O)COc3ccc(Br)cc3C)CC2)OC1=O` [(S)-4a] was tested. Which IC50 did it give?
**A.** 837 nM

same assay, conditions: ShHTL7; YLG competition; Supplementary Fig. 27; read-out: IC50, replicate 3

**Q.** For `CC1=C[C@H](OC(=O)N2CCN(C(=O)COc3ccc(Br)cc3C)CC2)OC1=O` [(S)-4a], which IC50 is on record?
**A.** 921 nM

same assay, conditions: ShHTL7; average of 3 replicates; Supplementary Fig. 27; read-out: IC50, average

**Q.** How did the IC50 turn out when `CC1=C[C@H](OC(=O)N2CCN(C(=O)COc3ccc(Br)cc3C)CC2)OC1=O` [(S)-4a] was run?
**A.** 938 nM

same assay, conditions: YLG as substrate; text and Fig. 2; read-out: IC50, competitive ShHTL7 inhibition (YLG assay)

**Q.** Which IC50 does the source give for `CC1=C[C@H](OC(=O)N2CCN(C(=O)COc3ccc(Br)cc3C)CC2)OC1=O` [(S)-4a] here?
**A.** 940 ± 110 nM

same assay, conditions: wild-type ShHTL7; average of 3; source data of Fig. 2a,b, Supplementary Figs. 8a, 9a, 20b; read-out: IC50, competitive ShHTL7 inhibition (YLG), source data average

**Q.** For `CC1=C[C@H](OC(=O)N2CCN(C(=O)COc3ccc(Br)cc3C)CC2)OC1=O` [(S)-4a], which IC50 is on record?
**A.** 938 nM

target: T2, AtD14 (Arabidopsis thaliana, UniProt Q9SQR3); experiment: Competitive inhibition of AtD14 with YLG as substrate; format: biochemical; conditions: YLG as the substrate; read-out: Competitive AtD14 inhibitory activity IC50
T2 construct: His tag; made in house; host or cells: E. coli BL21
T2 sequence (Q9SQR3 1-267): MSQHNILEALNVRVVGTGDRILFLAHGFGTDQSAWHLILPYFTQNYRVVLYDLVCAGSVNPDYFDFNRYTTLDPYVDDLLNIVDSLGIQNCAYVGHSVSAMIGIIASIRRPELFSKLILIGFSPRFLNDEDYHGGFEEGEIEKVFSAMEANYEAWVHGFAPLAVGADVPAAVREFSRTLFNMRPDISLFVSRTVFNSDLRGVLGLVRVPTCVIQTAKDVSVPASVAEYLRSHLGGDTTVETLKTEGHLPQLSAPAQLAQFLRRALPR
Procedure: as §1

**Q.** With `CC1=C[C@H](OC(=O)N2CCN(C(=O)COc3ccc(Br)cc3C)CC2)OC1=O` [(S)-4a] as the compound, how does the IC50 read?
**A.** > 100 µM

target: T1, ShHTL7; experiment: biochemical; format: binding; conditions: Supplementary Table 7; binding affinities between ShHTL7 and agonists by SPR; read-out: KD/μM
Procedure: We used a sensitive, high-throughput Surface plasmon resonance (SPR) method to examine the binding affinities of the 51 candidates to the recombinant ShHTL7 protein, which was immobilized on the CM5 sensor chip. rac-GR24 was used as a positive control.
The interactions of small molecules with recombinant ShHTL7 were evaluated using the Biacore T200 system (GE Healthcare, USA) at 25 °C[47]. The purified ShHTL7 protein was immobilized on a CM5 sensor chip using the standard amine coupling procedure. […] PBS-P (10 mM phosphate buffer, 2.7 mM KCl, 137 mM NaCl, 0.05% Surfactant P20) containing 0.5% DMSO was used as the running buffer. For the screening experiments, candidates with different structures at 50 μM in the running buffer were injected individually at a flow rate of 30 μL min^−1. For binding affinity studies, compounds with different concentrations in running buffer were used. During the experiments, both the contact and dissociation times were set as 1 min. Data analysis was performed using the Biacore Evaluation Software (T200 Version 2.0). The affinity values (KD) were obtained by the kinetics analysis or the steady-state affinity method.

**Q.** How did the Kd turn out when `CC1=C[C@H](OC(=O)N2CCN(C(=O)COc3ccc(Br)cc3C)CC2)OC1=O` [(S)-4a] was run?
**A.** 0.79 ± 0.06 µM
